Measured values reported in publication PMC9851200, “Multiparameter phenotypic screening for endogenous TFEB and TFE3 translocation identifies novel chemical series modulating lysosome function” (Autophagy, 2022).

Key:
Assay type in all cases: binding
[1] = molecular target: kinases (KINOMEscan panel) (Homo sapiens, UniProt P42338); conditions: PIK3CB; NEW KINOMEscan
[2] = molecular target: kinases (KINOMEscan panel) (Homo sapiens, UniProt P14616); conditions: INSRR; NEW KINOMEscan
[3] = molecular target: kinases (KINOMEscan panel) (Homo sapiens, UniProt Q9UKE5); conditions: TNIK; NEW KINOMEscan
[4] = molecular target: T1, kinases (KINOMEscan panel) (Homo sapiens, UniProt O14965); conditions: NEW KINOMEscan
T1 sequence (O14965 1-403): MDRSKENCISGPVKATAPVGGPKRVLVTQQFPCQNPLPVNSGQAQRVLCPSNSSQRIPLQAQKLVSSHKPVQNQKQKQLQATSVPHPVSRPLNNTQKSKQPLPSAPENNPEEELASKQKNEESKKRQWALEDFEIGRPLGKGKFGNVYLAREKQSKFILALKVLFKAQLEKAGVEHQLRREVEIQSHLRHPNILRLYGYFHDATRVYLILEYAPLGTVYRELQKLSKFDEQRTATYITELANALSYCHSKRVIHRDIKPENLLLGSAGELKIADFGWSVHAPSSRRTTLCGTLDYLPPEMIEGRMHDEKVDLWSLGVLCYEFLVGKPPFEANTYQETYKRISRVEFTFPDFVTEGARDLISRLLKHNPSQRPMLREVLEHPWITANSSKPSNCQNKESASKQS

[5] = molecular target: kinases (KINOMEscan panel) (Homo sapiens, UniProt P00533, L858R/T790M); conditions: NEW KINOMEscan
[6] = molecular target: kinases (KINOMEscan panel) (Homo sapiens, UniProt P42336, C420R); conditions: PIK3CA(C420R); NEW KINOMEscan
[7] = molecular target: kinases (KINOMEscan panel) (Homo sapiens, UniProt P31749); conditions: kinase AKT1; NEW KINOMEscan
[8] = molecular target: kinases (KINOMEscan panel) (Homo sapiens, UniProt P78362); conditions: SRPK2; NEW KINOMEscan
[9] = molecular target: kinases (KINOMEscan panel) (Homo sapiens, UniProt P00533, L858R); conditions: kinase EGFR(L858R); NEW KINOMEscan
[10] = molecular target: kinases (KINOMEscan panel) (Homo sapiens, UniProt Q04759); conditions: kinase PRKCQ; NEW KINOMEscan
[11] = molecular target: kinases (KINOMEscan panel) (Homo sapiens, UniProt P00533, DEL746-750); conditions: NEW KINOMEscan
[12] = molecular target: kinases (KINOMEscan panel) (Homo sapiens, UniProt P04626); conditions: kinase ERBB2; NEW KINOMEscan
[13] = molecular target: kinases (KINOMEscan panel) (Homo sapiens, UniProt P00519, Y253F); conditions: kinase ABL1(Y253F)-phosphorylated; NEW KINOMEscan
[14] = molecular target: kinases (KINOMEscan panel) (Homo sapiens, UniProt O43353); conditions: RIPK2; NEW KINOMEscan
[15] = molecular target: kinases (KINOMEscan panel) (Homo sapiens, UniProt Q9UM73, C1156Y); conditions: kinase ALK(C1156Y); NEW KINOMEscan
[16] = molecular target: kinases (KINOMEscan panel) (Homo sapiens, UniProt Q16816); conditions: PHKG1; NEW KINOMEscan
[17] = molecular target: kinases (KINOMEscan panel) (Homo sapiens, UniProt Q13464); conditions: ROCK1; NEW KINOMEscan
[18] = molecular target: kinases (KINOMEscan panel) (Homo sapiens, UniProt P35590); conditions: TIE1; NEW KINOMEscan
[19] = molecular target: kinases (KINOMEscan panel) (Homo sapiens, UniProt O75914); conditions: NEW KINOMEscan
[20] = molecular target: T2, kinases (KINOMEscan panel) (Homo sapiens, UniProt Q9UQ88); conditions: NEW KINOMEscan
T2 sequence (Q9UQ88 1-783): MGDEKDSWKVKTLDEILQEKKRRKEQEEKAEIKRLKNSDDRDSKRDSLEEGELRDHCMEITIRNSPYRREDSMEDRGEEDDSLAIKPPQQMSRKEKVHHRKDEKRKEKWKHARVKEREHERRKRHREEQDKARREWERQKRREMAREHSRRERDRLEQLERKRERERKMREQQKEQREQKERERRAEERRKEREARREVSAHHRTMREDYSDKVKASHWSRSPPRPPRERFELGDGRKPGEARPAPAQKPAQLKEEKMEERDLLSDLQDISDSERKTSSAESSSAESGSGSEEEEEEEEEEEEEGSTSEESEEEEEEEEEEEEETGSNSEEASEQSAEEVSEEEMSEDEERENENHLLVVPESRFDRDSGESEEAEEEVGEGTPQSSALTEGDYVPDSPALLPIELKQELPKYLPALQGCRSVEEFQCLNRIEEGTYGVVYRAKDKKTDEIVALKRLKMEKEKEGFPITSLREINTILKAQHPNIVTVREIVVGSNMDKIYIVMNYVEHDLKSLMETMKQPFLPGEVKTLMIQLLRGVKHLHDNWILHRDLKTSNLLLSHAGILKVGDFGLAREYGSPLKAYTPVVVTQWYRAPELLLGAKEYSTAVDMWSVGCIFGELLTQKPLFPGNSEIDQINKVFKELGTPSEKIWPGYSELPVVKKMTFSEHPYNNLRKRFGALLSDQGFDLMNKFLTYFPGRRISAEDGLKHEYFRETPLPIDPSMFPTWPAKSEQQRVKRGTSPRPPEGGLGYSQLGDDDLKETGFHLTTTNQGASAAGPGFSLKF

[21] = molecular target: kinases (KINOMEscan panel) (Homo sapiens, UniProt Q07912); conditions: TNK2; NEW KINOMEscan

kinases (KINOMEscan panel) (Homo sapiens, UniProt P35590), sequence (P35590 22-1138): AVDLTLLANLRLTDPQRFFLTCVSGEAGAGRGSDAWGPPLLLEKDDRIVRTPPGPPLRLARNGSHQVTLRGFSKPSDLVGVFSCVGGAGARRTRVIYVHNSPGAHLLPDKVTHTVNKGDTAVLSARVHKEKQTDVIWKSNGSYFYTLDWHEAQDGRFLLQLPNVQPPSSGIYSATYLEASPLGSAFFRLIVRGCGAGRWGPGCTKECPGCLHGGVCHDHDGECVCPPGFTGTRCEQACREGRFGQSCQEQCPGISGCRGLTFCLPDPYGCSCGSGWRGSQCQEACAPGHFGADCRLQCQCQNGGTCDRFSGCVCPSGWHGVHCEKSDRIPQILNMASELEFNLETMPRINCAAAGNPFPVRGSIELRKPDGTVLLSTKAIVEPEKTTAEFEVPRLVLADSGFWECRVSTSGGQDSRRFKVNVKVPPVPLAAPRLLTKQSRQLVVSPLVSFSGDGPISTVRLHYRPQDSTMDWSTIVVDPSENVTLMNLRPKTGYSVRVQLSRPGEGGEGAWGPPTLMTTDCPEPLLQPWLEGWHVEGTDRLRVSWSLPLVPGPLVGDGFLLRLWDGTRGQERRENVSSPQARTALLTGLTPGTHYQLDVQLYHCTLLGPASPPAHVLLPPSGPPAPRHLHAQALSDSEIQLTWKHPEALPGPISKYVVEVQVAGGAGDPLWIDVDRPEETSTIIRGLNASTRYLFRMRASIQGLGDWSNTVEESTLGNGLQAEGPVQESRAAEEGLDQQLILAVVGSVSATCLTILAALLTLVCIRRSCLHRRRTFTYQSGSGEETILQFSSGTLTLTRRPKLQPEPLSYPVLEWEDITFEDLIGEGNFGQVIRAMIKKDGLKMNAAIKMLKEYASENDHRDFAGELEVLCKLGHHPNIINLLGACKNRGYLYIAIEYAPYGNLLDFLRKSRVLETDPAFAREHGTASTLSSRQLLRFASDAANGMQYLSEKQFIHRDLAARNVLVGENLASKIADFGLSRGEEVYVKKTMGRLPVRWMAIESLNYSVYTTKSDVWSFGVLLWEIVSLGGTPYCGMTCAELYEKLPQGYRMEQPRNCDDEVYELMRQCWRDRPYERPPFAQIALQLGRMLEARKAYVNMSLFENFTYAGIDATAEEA
kinases (KINOMEscan panel) (Homo sapiens, UniProt P00533, L858R/T790M), sequence (P00533 25-1210 T790M/L858R): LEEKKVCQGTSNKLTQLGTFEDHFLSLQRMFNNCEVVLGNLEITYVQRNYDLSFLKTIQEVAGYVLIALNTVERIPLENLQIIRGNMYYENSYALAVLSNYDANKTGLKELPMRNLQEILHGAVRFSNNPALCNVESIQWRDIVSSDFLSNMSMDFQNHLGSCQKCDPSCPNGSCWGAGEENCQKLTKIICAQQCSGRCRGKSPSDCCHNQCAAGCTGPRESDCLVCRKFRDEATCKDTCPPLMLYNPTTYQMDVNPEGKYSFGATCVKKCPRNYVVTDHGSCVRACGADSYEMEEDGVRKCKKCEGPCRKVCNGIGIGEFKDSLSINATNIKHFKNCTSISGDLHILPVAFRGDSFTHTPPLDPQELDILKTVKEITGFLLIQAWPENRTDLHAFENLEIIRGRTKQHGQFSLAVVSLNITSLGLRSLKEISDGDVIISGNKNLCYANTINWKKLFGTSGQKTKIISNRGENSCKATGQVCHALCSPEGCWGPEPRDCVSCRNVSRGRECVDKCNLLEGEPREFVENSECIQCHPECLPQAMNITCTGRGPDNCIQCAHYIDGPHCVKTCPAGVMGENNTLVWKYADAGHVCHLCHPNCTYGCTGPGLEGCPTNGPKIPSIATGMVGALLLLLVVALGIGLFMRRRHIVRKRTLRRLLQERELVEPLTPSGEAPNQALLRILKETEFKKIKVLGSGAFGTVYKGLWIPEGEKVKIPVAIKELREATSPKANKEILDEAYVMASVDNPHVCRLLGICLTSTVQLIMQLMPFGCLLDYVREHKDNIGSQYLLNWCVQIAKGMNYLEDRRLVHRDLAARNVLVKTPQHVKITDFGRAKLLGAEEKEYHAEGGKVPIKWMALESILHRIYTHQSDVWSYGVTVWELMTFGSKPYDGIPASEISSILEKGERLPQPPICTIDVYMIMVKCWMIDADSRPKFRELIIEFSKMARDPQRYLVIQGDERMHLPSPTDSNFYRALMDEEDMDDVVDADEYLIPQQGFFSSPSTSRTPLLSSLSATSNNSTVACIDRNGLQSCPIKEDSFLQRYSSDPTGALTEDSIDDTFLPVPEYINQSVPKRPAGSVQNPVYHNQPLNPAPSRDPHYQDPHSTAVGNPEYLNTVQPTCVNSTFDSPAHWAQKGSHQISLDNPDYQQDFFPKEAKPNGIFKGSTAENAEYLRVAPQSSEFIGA
kinases (KINOMEscan panel) (Homo sapiens, UniProt Q16816), sequence (Q16816 whole entry): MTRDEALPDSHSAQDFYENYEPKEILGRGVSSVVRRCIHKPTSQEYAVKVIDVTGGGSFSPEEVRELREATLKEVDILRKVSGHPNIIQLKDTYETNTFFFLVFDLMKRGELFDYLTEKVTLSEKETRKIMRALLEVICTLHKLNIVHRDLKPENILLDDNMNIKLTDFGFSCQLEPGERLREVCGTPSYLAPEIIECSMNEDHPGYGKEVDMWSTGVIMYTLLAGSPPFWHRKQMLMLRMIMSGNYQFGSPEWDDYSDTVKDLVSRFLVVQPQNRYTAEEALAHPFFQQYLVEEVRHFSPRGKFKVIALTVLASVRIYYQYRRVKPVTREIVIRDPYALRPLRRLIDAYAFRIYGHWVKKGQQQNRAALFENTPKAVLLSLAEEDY
kinases (KINOMEscan panel) (Homo sapiens, UniProt O43353), sequence (O43353 whole entry): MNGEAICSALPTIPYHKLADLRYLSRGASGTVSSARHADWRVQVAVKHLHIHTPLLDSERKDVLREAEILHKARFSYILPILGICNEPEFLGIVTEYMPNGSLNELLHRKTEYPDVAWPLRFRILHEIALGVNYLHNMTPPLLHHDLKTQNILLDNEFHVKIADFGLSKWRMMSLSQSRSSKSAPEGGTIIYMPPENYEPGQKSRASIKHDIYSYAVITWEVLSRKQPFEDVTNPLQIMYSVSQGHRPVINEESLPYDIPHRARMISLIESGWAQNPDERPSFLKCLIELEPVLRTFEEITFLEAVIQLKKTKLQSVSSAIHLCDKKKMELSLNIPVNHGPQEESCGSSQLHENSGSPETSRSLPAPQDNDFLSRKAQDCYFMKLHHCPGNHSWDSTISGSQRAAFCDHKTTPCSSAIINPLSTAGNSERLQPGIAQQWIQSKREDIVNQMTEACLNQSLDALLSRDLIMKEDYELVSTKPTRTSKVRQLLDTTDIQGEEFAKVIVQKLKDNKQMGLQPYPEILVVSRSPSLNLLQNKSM
kinases (KINOMEscan panel) (Homo sapiens, UniProt P04626), sequence (P04626 23-1255): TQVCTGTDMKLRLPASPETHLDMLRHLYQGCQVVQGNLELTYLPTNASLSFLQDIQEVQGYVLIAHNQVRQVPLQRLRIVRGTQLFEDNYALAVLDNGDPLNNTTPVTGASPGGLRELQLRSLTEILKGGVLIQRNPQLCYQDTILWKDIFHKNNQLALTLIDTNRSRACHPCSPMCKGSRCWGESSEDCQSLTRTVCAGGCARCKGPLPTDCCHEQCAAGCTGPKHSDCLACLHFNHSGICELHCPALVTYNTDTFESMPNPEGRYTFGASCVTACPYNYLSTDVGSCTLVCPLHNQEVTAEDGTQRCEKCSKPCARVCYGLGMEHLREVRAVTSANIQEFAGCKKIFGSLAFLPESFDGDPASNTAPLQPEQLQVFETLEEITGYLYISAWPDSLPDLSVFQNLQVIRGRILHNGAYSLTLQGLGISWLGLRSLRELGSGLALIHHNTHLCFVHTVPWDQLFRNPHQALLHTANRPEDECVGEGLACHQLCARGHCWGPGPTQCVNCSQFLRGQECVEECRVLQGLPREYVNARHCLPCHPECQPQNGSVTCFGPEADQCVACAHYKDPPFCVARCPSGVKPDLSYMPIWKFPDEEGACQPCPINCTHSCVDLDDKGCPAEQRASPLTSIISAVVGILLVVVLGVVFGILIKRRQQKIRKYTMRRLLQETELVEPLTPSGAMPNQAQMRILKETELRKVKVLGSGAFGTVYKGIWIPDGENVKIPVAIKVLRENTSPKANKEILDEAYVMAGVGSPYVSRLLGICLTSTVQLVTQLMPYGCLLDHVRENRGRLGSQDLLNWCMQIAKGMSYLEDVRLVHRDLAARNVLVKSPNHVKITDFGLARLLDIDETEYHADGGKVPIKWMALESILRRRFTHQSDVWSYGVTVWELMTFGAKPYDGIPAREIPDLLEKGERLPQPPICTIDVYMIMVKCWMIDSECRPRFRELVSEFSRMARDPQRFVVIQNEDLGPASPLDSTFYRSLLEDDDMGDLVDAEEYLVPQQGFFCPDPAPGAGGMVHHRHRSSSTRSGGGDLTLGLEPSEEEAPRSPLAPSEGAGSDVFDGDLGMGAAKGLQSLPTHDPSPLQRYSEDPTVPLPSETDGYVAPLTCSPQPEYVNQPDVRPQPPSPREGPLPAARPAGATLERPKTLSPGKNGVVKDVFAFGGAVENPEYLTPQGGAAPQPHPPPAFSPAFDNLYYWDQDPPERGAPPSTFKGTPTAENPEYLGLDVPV
kinases (KINOMEscan panel) (Homo sapiens, UniProt P31749), sequence (P31749 whole entry): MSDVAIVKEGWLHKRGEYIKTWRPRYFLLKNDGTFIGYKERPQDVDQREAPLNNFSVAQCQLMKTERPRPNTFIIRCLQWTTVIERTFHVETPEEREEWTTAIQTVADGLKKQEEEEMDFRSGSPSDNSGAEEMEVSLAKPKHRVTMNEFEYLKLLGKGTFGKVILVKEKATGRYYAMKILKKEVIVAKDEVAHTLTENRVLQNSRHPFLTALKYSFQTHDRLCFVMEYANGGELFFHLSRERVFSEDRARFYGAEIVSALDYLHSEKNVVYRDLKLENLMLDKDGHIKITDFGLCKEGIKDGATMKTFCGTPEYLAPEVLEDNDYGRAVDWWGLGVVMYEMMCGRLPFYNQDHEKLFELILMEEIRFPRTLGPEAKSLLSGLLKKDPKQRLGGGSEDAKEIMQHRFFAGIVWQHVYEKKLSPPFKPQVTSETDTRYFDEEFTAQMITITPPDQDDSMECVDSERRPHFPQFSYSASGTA

SMILES	KINOMEscan PIK3CB [1]	KINOMEscan INSRR [2]	KINOMEscan TNIK [3]	KINOMEscan AURKA [4]	KINOMEscan EGFR(L858R,T790M) [5]	KINOMEscan PIK3CA(C420R) [6]	KINOMEscan AKT1 [7]	KINOMEscan SRPK2 [8]	KINOMEscan EGFR(L858R) [9]	KINOMEscan PRKCQ [10]	KINOMEscan EGFR(E746-A750del) [11]	KINOMEscan ERBB2 [12]	KINOMEscan ABL1(Y253F)-phosphorylated [13]	KINOMEscan RIPK2 [14]	KINOMEscan ALK(C1156Y) [15]	KINOMEscan PHKG1 [16]	KINOMEscan ROCK1 [17]	KINOMEscan TIE1 [18]	KINOMEscan PAK3 [19]	KINOMEscan CDK11A [20]	further results
Cc1cccc(-c2nc(Nc3ccc4nn(C)cc4c3)c3ccccc3n2)n1 [NK167]	0	0	0	3	0	0	10	0	0	0	15	0	0	3	11	5	0	0	12	24	KINOMEscan TNK2 [21]: 0
Cc1cccc(-c2nc(N(C)c3ccc4ncsc4c3)c3ccccc3n2)n1 [NK-161]	0	0	0	22	10	0	17	0	2	7	21	0	0	11	2	5	12	0	17	25	KINOMEscan TNK2 [21]: 0
